These results are taken from ChEMBL document CHEMBL3994622, “Design and synthesis of new RAF kinase-inhibiting antiproliferative quinoline derivatives. Part 2: Diarylurea derivatives” (Eur J Med Chem, 2017).

What all share (type): functional
For one assay, the system named is COLO 205. Kind of assay: Growth inhibition of human COLO205 cells assessed as cell growth at 0.01 uM incubated for 48 hrs by sulforhodamine B assay relative to control. Particulars: COLO 205, 48 h, read-out: Activity. Background: In SRB staining, fixed cells bind dye roughly in proportion to their protein.
Assay [1] concerns NCI-H460. Kind of assay: Growth inhibition of human NCI-H460 cells assessed as cell growth at 0.1 uM incubated for 48 hrs by sulforhodamine B assay relative to control. The note with it: NCI-H460, 48 h, read-out: Activity.
In assay [2] the test system is A498. In words: Growth inhibition of human A498 cells assessed as cell growth at 0.1 uM incubated for 48 hrs by sulforhodamine B assay relative to control. Particulars: A498, 48 h, read-out: Activity.
Another assay has as its system TK-10. In words: Growth inhibition of human TK10 cells assessed as cell growth at 0.1 uM incubated for 48 hrs by sulforhodamine B assay relative to control. Particulars: TK-10, 48 h, read-out: Activity.
In assay [3] the test system is NCI-H460. Kind of assay: Growth inhibition of human NCI-H460 cells assessed as cell growth at 1 uM incubated for 48 hrs by sulforhodamine B assay relative to control. Particulars: NCI-H460, 48 h, read-out: Activity.
For another assay, the system named is HCC 2998. Kind of assay: Growth inhibition of human HCC2998 cells assessed as cell growth at 1 uM incubated for 48 hrs by sulforhodamine B assay relative to control. The note with it: HCC 2998, 48 h, read-out: Activity.
Another assay concerns HCT-116. In words: Growth inhibition of human HCT116 cells assessed as cell growth at 1 uM incubated for 48 hrs by sulforhodamine B assay relative to control. The note with it: HCT-116, 48 h, read-out: Activity.
For a further assay, the system named is IGROV-1. Kind of assay: Growth inhibition of human IGROV1 cells assessed as cell growth at 1 uM incubated for 48 hrs by sulforhodamine B assay relative to control. The note with it: IGROV-1, 48 h, read-out: Activity.
Assay [4] has as its system Hs-578T. In words: Growth inhibition of human Hs 578T cells assessed as cell growth at 1 uM incubated for 48 hrs by sulforhodamine B assay relative to control. The note with it: read-out: Activity.
A further assay has as its system BT-549. In words: Growth inhibition of human BT549 cells assessed as cell growth at 10 uM incubated for 48 hrs by sulforhodamine B assay relative to control. Particulars: BT-549, 48 h, read-out: Activity.
The subject of assay [5] is SR. In words: Growth inhibition of human SR cells assessed as cell growth at 100 uM incubated for 48 hrs by sulforhodamine B assay relative to control. Particulars: read-out: Activity.
The next assay relates to SF-539. Kind of assay: Growth inhibition of human SF539 cells assessed as cell growth at 100 uM incubated for 48 hrs by sulforhodamine B assay relative to control. The note with it: SF-539, 48 h, read-out: Activity.
For the next assay, the system named is OVCAR-8. Kind of assay: Growth inhibition of human OVCAR8 cells assessed as cell growth at 100 uM incubated for 48 hrs by sulforhodamine B assay relative to control. Particulars: OVCAR-8, 48 h, read-out: Activity.
For assay [6], the system named is Hs-578T. In words: Growth inhibition of human Hs 578T cells assessed as cell growth at 100 uM incubated for 48 hrs by sulforhodamine B assay relative to control. Particulars: read-out: Activity.
Assay [7] relates to Malme-3M. Kind of assay: Growth inhibition of human MALME-3M cells assessed as cell growth at 0.003 uM incubated for 48 hrs by sulforhodamine B assay relative to control. Particulars: read-out: Activity.
Another assay has as its system SK-MEL-5. Kind of assay: Growth inhibition of human SK-MEL-5 cells assessed as cell growth at 0.003 uM incubated for 48 hrs by sulforhodamine B assay relative to control. Particulars: SK-MEL-5, 48 h, read-out: Activity.
The test system of a further assay is 786-0. Kind of assay: Growth inhibition of human 786-0 cells assessed as cell growth at 0.003 uM incubated for 48 hrs by sulforhodamine B assay relative to control. The note with it: 786-0, 48 h, read-out: Activity.
Assay [8] concerns A498. Kind of assay: Growth inhibition of human A498 cells assessed as cell growth at 0.003 uM incubated for 48 hrs by sulforhodamine B assay relative to control. The note with it: A498, 48 h, read-out: Activity.
In another assay the test system is PC-3. Kind of assay: Growth inhibition of human PC3 cells assessed as cell growth at 0.003 uM incubated for 48 hrs by sulforhodamine B assay relative to control. The note with it: PC-3, 48 h, read-out: Activity.
Another assay concerns UO-31. Kind of assay: Growth inhibition of human UO31 cells assessed as cell growth at 0.03 uM incubated for 48 hrs by sulforhodamine B assay relative to control. Particulars: UO-31, 48 h, read-out: Activity.
The test system of the next assay is K562. In words: Growth inhibition of human K562 cells assessed as cell growth at 0.3 uM incubated for 48 hrs by sulforhodamine B assay relative to control. Particulars: K562, 48 h, read-out: Activity.
The subject of assay [9] is SR. Kind of assay: Growth inhibition of human SR cells assessed as cell growth at 0.3 uM incubated for 48 hrs by sulforhodamine B assay relative to control. Particulars: read-out: Activity.
In another assay the test system is HOP-62. Kind of assay: Growth inhibition of human HOP62 cells assessed as cell growth at 0.3 uM incubated for 48 hrs by sulforhodamine B assay relative to control. Particulars: HOP-62, 48 h, read-out: Activity.
Assay [10] deals with UACC-62. Kind of assay: Growth inhibition of human UACC62 cells assessed as cell growth at 0.3 uM incubated for 48 hrs by sulforhodamine B assay relative to control. The note with it: UACC-62, 48 h, read-out: Activity.
The subject of another assay is KM12. In words: Growth inhibition of human KM12 cells assessed as cell growth at 3 uM incubated for 48 hrs by sulforhodamine B assay relative to control. The note with it: KM12, 48 h, read-out: Activity.
In assay [11] the test system is UACC-62. Kind of assay: Growth inhibition of human UACC62 cells assessed as cell growth at 3 uM incubated for 48 hrs by sulforhodamine B assay relative to control. Particulars: UACC-62, 48 h, read-out: Activity.
Assay [12] has as its system Hs-578T. Kind of assay: Growth inhibition of human Hs 578T cells assessed as cell growth at 3 uM incubated for 48 hrs by sulforhodamine B assay relative to control. The note with it: read-out: Activity.
The next assay concerns NCI-H23. In words: Growth inhibition of human NCI-H23 cells assessed as cell growth at 30 uM incubated for 48 hrs by sulforhodamine B assay relative to control. Particulars: NCI-H23, 48 h, read-out: Activity.
Another assay deals with HT-29. In words: Growth inhibition of human HT-29 cells assessed as cell growth at 30 uM incubated for 48 hrs by sulforhodamine B assay relative to control. Particulars: HT-29, 48 h, read-out: Activity.
The next assay deals with SW-620. In words: Growth inhibition of human SW620 cells assessed as cell growth at 30 uM incubated for 48 hrs by sulforhodamine B assay relative to control. The note with it: SW-620, 48 h, read-out: Activity.
A further assay has as its system U-251. In words: Growth inhibition of human U251 cells assessed as cell growth at 30 uM incubated for 48 hrs by sulforhodamine B assay relative to control. Particulars: U-251, 48 h, read-out: Activity.
For assay [13], the system named is Malme-3M. In words: Growth inhibition of human MALME-3M cells assessed as cell growth at 30 uM incubated for 48 hrs by sulforhodamine B assay relative to control. Particulars: read-out: Activity.
In assay [14] the test system is UACC-62. Kind of assay: Growth inhibition of human UACC62 cells assessed as cell growth at 30 uM incubated for 48 hrs by sulforhodamine B assay relative to control. Particulars: UACC-62, 48 h, read-out: Activity.
Another assay concerns OVCAR-5. Kind of assay: Growth inhibition of human OVCAR5 cells assessed as cell growth at 30 uM incubated for 48 hrs by sulforhodamine B assay relative to control. Particulars: OVCAR-5, 48 h, read-out: Activity.
The next assay has as its system NCI/ADR-RES. In words: Growth inhibition of human NCI/ADR-RES cells assessed as cell growth at 30 uM incubated for 48 hrs by sulforhodamine B assay relative to control. Particulars: read-out: Activity.

In the case of `COc1cc2cc(Oc3ccc(NC(=O)Nc4ccc(Cl)c(Cl)c4)cc3)c(C)nc2cc1OC`, the growth at 0.01 µM in the assay on COLO 205 came to 106%. The growth at 0.1 µM was found to be 103% in the assay on NCI-H460 [1], 86% with A498 [2] and 121% in the assay on TK-10. For the same compound, the growth at 1 µM was 82% with NCI-H460 [3]; 96% in the assay with HCC 2998; 76% in the assay with HCT-116; 110% with IGROV-1; 113% in the assay on Hs-578T [4]. Moreover, in the assay with BT-549, the growth at 10 µM came to 5%. The growth at 100 µM was -48% with SR [5], -54% in the assay with SF-539, -100% in the assay on OVCAR-8 and -45% in the assay with Hs-578T [6].
On to `COc1cc2cc(Oc3ccc(NC(=O)Nc4ccc(Cl)c(C(F)(F)F)c4)cc3)c(C)nc2cc1OC`, for which the growth at 0.003 µM was determined as 98% in the assay with Malme-3M [7]; 100% in the assay on SK-MEL-5; 97% in the assay on 786-0; 91% in the assay with A498 [8]; 95% with PC-3. Besides, in the assay with UO-31, the growth at 0.03 µM is 89%. The growth at 0.3 µM in the assay with K562 stood at 93%; in the assay with SR [9], 91%; in the assay with HOP-62, 86%; in the assay with UACC-62 [10], 81%. Moreover, the growth at 3 µM in the assay on KM12 is 7%; with UACC-62 [11] it was 28%; in the assay on Hs-578T [12], -15%. The growth at 30 µM in the assay with NCI-H23 is -75%; in the assay with HT-29 it was -82%; in the assay on SW-620, -87%; in the assay on U-251, -89%; in the assay with Malme-3M [13] it was -37%; in the assay on UACC-62 [14] it was -75%. Besides, the growth at 30 µM in the assay with OVCAR-5 is -81%; in the assay on NCI/ADR-RES, -39%.
For `COc1cc2cc(Oc3ccc(NC(=O)Nc4cc(C(F)(F)F)cc(C(F)(F)F)c4)cc3)c(C)nc2cc1OC`, the growth at 0.01 µM with COLO 205 was determined as 93%. For the same compound, the growth at 0.1 µM with NCI-H460 [1] was 107%; in the assay with A498 [2], 93%; in the assay on TK-10 it was 89%. Also, the growth at 1 µM in the assay with NCI-H460 [3] stood at 49%; in the assay with HCC 2998, 79%; in the assay on HCT-116, 33%; in the assay on IGROV-1, 31%; with Hs-578T [4], 101%. In addition, the growth at 10 µM with BT-549 was -64%. For the same compound, the growth at 100 µM with SR [5] was -19%; in the assay with SF-539 it was -74%; in the assay with OVCAR-8, -43%; in the assay with Hs-578T [6], -9%.
As to `Cc1nc2cc(O)c(O)cc2cc1Oc1ccc(NC(=O)Nc2ccc(Cl)c(Cl)c2)cc1`, the growth at 0.003 µM turned out to be 99% in the assay with Malme-3M [7]; 98% in the assay with SK-MEL-5; 98% in the assay with 786-0; 85% with A498 [8]; 104% in the assay with PC-3. Also, in the assay on UO-31, the growth at 0.03 µM was determined as 98%. Further, the growth at 0.3 µM in the assay with K562 was 123%; in the assay with SR [9], 98%; in the assay on HOP-62 it was 108%; with UACC-62 [10], 100%. Moreover, the growth at 3 µM stood at 95% in the assay with KM12, 91% in the assay on UACC-62 [11] and 100% in the assay with Hs-578T [12]. Moreover, the growth at 30 µM in the assay on NCI-H23 was -25%; in the assay with HT-29 it was 13%; in the assay on SW-620, 16%; with U-251, 3%; in the assay with Malme-3M [13] it was -10%; in the assay with UACC-62 [14], -78%. The growth at 30 µM in the assay on OVCAR-5 is -6%; in the assay with NCI/ADR-RES, 3%.
